The results in this text go back to patent US11466003B2, “Nitrogenous heterocyclic aromatic compound, preparation method therefor, pharmaceutical composition thereof, and application thereof” (SHANGHAI YINGLI PHARMACEUTICAL CO., LTD, priority 2016, dated 2022).

ALK5, sequence (P36897 34-503, species assumed): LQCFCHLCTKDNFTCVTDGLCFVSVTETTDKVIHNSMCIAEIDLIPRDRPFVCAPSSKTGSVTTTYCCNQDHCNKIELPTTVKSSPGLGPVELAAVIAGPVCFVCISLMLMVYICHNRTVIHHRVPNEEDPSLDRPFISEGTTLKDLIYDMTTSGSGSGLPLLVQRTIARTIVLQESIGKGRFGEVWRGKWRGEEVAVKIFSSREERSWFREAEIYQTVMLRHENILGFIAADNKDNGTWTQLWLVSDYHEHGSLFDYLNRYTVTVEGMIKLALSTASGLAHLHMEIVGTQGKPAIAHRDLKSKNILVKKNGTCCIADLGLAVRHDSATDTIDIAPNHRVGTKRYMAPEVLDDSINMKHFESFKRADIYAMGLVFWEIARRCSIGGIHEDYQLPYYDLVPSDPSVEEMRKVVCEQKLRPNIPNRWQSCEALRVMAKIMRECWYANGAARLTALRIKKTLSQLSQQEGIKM

This test addresses ALK5 (Homo sapiens (Human), UniProt P36897). The test is described as follows: Evaluation of IC50 of inhibitory activity toward ALK5 enzyme (ADP-Glo kinase assay). The test is classed as biochemical. The settings on record: 25 nM ALK5, 0.1 mg/mL peptide TGFbR1, 7 μM ATP, 30° C. 1 hour, ADP-Glo luminescence. How it is done: 5. […] The value of the luminescence reading was converted to % inhibition by formula (% inhibition=(max−sample RLU)/(max−min)×100, wherein, “min” refers to control fluorescence reading of reaction of no enzyme; “max” refers to the fluorescence reading of the sample with DMSO added as a control. The data was imported into MS Excel and curve fitting was performed using GraphPad Prism. IC50 values was calculated.
A general note: In ADP-Glo the light output rises with the ADP produced.
As to `Cc1cccc(-c2ccccc2-c2ccc3ncc(C(=O)O)n3c2)n1` [Compound 1], inhibition was half-maximal at 0.192 µM (IC50).
Consider `Cc1cccc(-c2ccccc2-c2ccc3ncc(C(N)=O)n3c2)n1` [Compound 2], for which it took 0.0165 µM to reach half-maximal inhibition (IC50).
Under `CNC(=O)c1cnc2ccc(-c3ccccc3-c3cccc(C)n3)cn12` [Compound 3] stands 0.027 µM; under `Cc1cccc(-c2ccccc2-c2ccc3ncc(CN)n3c2)n1` [Compound 4], 5.7 µM; under `Cc1cccc(-c2ccccc2-c2ccc3ncc(C(=O)N(C)C)n3c2)n1` [Compound 5], 0.243 µM.
In the case of `Cc1cccc(-c2c(F)cccc2-c2ccc3ncc(C(N)=O)n3c2)n1` [Compound 6], it took 0.082 µM to reach half-maximal inhibition (IC50).
Under `NC(=O)c1cnc2ccc(-c3ccccc3-c3ccccn3)cn12` [Compound 7] stands 0.085 µM; under `Cc1cccc(-c2cccc(F)c2-c2ccc3ncc(C(N)=O)n3c2)n1` [Compound 8], 0.045 µM.
Under `Cc1cccc(-c2ccc(F)cc2-c2ccc3ncc(C(N)=O)n3c2)n1` [Compound 9] stands 0.016 µM.
Under `Cc1cccc(-c2cc(F)ccc2-c2ccc3ncc(C(N)=O)n3c2)n1` [Compound 10] stands 0.035 µM; under `Cc1cccc(-c2ccccc2-c2ccc3nccn3c2)n1` [Compound 11], 0.145 µM; under `Cc1cccc(-c2ccccc2-c2ccc3ncc(C(=O)NO)n3c2)n1` [Compound 12], 0.045 µM.
On to `Cc1cccc(-c2ccccc2-c2ccc3ncnc(N)c3c2)n1` [Compound 13], for which the IC50 (in general, the concentration that inhibits the measured activity by half) came out at 0.337 µM.
Under `Cc1cccc(-c2ccccc2-c2ccn3ncc(C(N)=O)c3c2)n1` [Compound 14] stands 0.053 µM.
Regarding `Cc1cccc(-c2ccccc2-c2ccc3ncnn3c2)n1` [Compound 15], the IC50 amounted to 0.36 µM.
Under `Cc1cccc(-c2ccccc2-c2ccc3[nH]ncc3c2)n1` [Compound 16] stands 1.3 µM.
On to `Cc1cccc(-c2ccccc2-c2ccc3nncn3c2)n1` [Compound 17], for which the IC50 is > 10 µM.
As to `Cc1cccc(-c2ccccc2-c2ccc3nnc(C(N)=O)n3c2)n1` [Compound 18], the midpoint of inhibition, the IC50, lay at 4.74 µM.
Consider `Cc1cccc(-c2ccccc2-c2ccc3c(cnn3C(N)=O)c2)n1` [Compound 19], for which the IC50 is > 10 µM.
`Cc1cccc(-c2ccccc2-c2ccc3ncc(C#N)n3c2)n1` [Compound 20] returned an IC50 of 0.535 µM.
`Cc1cccc(-c2ccccc2-c2ccc3ncc(-c4nnn[nH]4)n3c2)n1` [Compound 21] showed an IC50 of 0.072 µM.
`Cc1cccc(-c2ccccc2-c2ccc3ncc(N)n3c2)n1` [Compound 22] gave an IC50 of 0.56 µM.
`Cc1cccc(-c2ccncc2-c2ccc3ncc(C(N)=O)n3c2)n1` [Compound 23] registered an IC50 of 0.11 µM.
Compound `COc1cccc(-c2ccccc2-c2ccc3ncc(C(N)=O)n3c2)n1` [Compound 24] displayed an IC50 of 0.045 µM.
Under `Cc1cccc(-c2ccc(C#N)cc2-c2ccc3ncc(C(N)=O)n3c2)n1` [Compound 25] stands 0.073 µM; under `Cc1csc(-c2ccccc2-c2ccc3ncc(C(N)=O)n3c2)n1` [Compound 26], 0.038 µM.
Consider `Cc1nc(-c2ccccc2-c2ccc3ncc(C(N)=O)n3c2)cs1` [Compound 27], for which the IC50 worked out at 0.193 µM.
Compound `Cc1cccc(-c2ccccc2-c2ccc3ncc(NC=O)n3c2)n1` [Compound 28] gave an IC50 of 0.674 µM.
Compound `COc1ccc(-c2cccc(C)n2)c(-c2ccc3ncc(C(N)=O)n3c2)c1` [Compound 29] registered an IC50 of 0.038 µM.
Under `Cc1cccc(-c2ccccc2-c2ccc3nc(C)c(C(N)=O)n3c2)n1` [Compound 30] stands 2.93 µM; under `Cc1cccc(-c2ccccc2-c2ccc3ncc(C)n3c2)n1` [Compound 31], 0.126 µM; under `Cc1ccn(-c2ccccc2-c2ccc3ncc(C(N)=O)n3c2)n1` [Compound 32], 0.339 µM.
Under `Cc1cccc(-c2ccccc2-c2ccc3occ(C(N)=O)c3c2)n1` [Compound 33] stands 0.221 µM; under `Cc1cccc(-c2ccccc2-c2ccc3ncc(S(N)(=O)=O)n3c2)n1` [Compound 34], 0.581 µM.
Under `Cc1cccc(-c2ccccc2-c2ccc3ncc(C(=N)N)n3c2)n1` [Compound 35] stands 0.579 µM.
As for `Cc1cccc(-c2ccc(C(N)=O)cc2-c2ccc3ncc(C(N)=O)n3c2)n1` [Compound 37], the IC50 is 0.063 µM.
Under `Cc1nc(-c2ccccc2-c2ccc3ncc(C(N)=O)n3c2)ccc1F` [Compound 38] stands 0.018 µM; under `Cc1nc(-c2ccccc2-c2ccc3ncc(C(N)=O)n3c2)ccc1Cl` [Compound 39], 0.196 µM; under `Cc1ccc(F)c(-c2ccccc2-c2ccc3ncc(C(N)=O)n3c2)n1` [Compound 40], 0.012 µM.
Regarding `Cc1ccnc(-c2ccccc2-c2ccc3ncc(C(N)=O)n3c2)n1` [Compound 42], the IC50 worked out at 0.144 µM.
In the case of `Cc1cncc(-c2ccccc2-c2ccc3ncc(C(N)=O)n3c2)n1` [Compound 44] it was 0.322 µM.
In the case of `NC(=O)c1cnc2ccc(-c3ccccc3-c3cccc(C(F)(F)F)n3)cn12` [Compound 45] it was 0.015 µM.
In the case of `Cn1ccc(-c2ccccc2-c2ccc3ncc(C(N)=O)n3c2)n1` [Compound 47], it took 0.126 µM to reach half-maximal inhibition (IC50).
In the case of `Cc1nccc(-c2ccccc2-c2ccc3ncc(C(N)=O)n3c2)n1` [Compound 48] it was 0.237 µM.
`Cc1cccc(-c2ccccc2-c2ccc3nc[nH]c(=O)c3c2)n1` [Compound 49] returned an IC50 of 0.102 µM.
The compound `Cc1cccc(-c2ccccc2-c2ccc3ncc(C(N)=O)nc3c2)n1` [Compound 52] showed an IC50 of 0.415 µM.
Under `Cc1cccc(-c2cscc2-c2ccc3ncc(C(N)=O)n3c2)n1` [Compound 53] stands 0.0069 µM; under `Cc1cccc(-c2ccccc2-c2ccc3ncc(C(N)=O)n3n2)n1` [Compound 54], 0.098 µM; under `Cc1cccc(-c2ccc(OCc3ccccc3F)cc2-c2ccc3ncc(C(N)=O)n3c2)n1` [Compound 55], 0.013 µM.
Under `Cc1cccc(-c2cc3nccn3cc2-c2ccc3ncc(C(N)=O)n3c2)n1` [Compound 57] stands 0.056 µM.
Under `Cc1cccc(-c2ccccc2-c2ccc3ncc(C(=O)NC4CC4)n3c2)n1` [Compound 58] stands 0.046 µM; under `Cc1cccc(-c2ccc(Oc3ccccc3F)cc2-c2ccc3ncc(C(N)=O)n3c2)n1` [Compound 59], 0.039 µM.
Consider `Cc1cccc(-c2ccccc2-c2ccc3ncc(C(=O)NCCN4CCOCC4)n3c2)n1` [Compound 60], for which the IC50 is 0.064 µM.
In the case of `Cc1cccc(-c2ccccc2-c2ccc3ncc(C(=O)NC4CCOCC4)n3c2)n1` [Compound 61] it was 0.114 µM; in that of `Cc1coc(-c2ccccc2-c2ccc3ncc(C(N)=O)n3c2)n1` [Compound 63], 0.074 µM; in that of `Cc1cccc(-c2ccccc2-c2ccnc3ccc(C(N)=O)cc23)n1` [Compound C-1, reference compound], > 10 µM.
